Data published in article PMC9941179, “Preparation and activity evaluation of angiotensin-I converting enzyme inhibitory peptides from protein hydrolysate of mulberry leaf” (Frontiers in Nutrition, 2023).
Like-named read-outs stand apart in the source and are kept apart here. Where no end group is shown, it is not given here.

What was measured:
ACE [1] = target: T1, ACE (Homo sapiens, UniProt P12821); assay: ACE inhibitory activity of synthetic peptides; type: biochemical
T1 construct: purchased Tong Ren Chemical Co., Ltd. (Institute of Tongren Chemistry, Japan) ACE Kit-WST
Method: The ACE inhibitory activity was determined by ACE Kit-WST (Institute of Tongren Chemistry, Japan). Taking ultra-pure water as blank control, the inhibitory activity of ACE was calculated.
Pinhibitoryrate%=ABlack1-ASample/ABlack1-ABlack2×100%
Each experimental procedure was performed three times, and data were expressed as the mean ± standard deviation. Statistical analyses were conducted by one-way analysis of variance using IBM SPSS 20 (SPSS Inc., Chicago, USA). Duncan’s test was applied to determine the significance of multiple groups. The P-value <0.05 was considered statistically significant.
All the peptides were commercially synthesized and their ACE activity was determined (Figure 8).

ACE [2] = details: 0.05 mg/L; peptide from broccoli; ref Zhang et al. ([21]); cited from earlier work
Text: It is of high research value to develop efficient antihypertensive products around botanical angiotensin- I converting enzyme (ACE) inhibitory peptides ([11]). Hypertension is a standard chronic disease and the most critical risk factor for cardio-cerebrovascular disease ([12]). The pathogenesis of hypertension is associated with the renin tensin system (Renin-Angiotensin System, RAS) ([13], [14]). RAS contains two key enzymes: hypertension proteinase (Renin) and ACE ([15]). Therefore, inhibiting the enzyme activity of Renin and ACE is one of the treatments for hypertension ([16], [17]). ACE b ...

[3] = synthetic peptide, IC50 used as inhibitor concentration in kinetics, read-out: IC50 (peptide concentration in Table 7) (converted)

T1 sequence (P12821 30-1306, species assumed): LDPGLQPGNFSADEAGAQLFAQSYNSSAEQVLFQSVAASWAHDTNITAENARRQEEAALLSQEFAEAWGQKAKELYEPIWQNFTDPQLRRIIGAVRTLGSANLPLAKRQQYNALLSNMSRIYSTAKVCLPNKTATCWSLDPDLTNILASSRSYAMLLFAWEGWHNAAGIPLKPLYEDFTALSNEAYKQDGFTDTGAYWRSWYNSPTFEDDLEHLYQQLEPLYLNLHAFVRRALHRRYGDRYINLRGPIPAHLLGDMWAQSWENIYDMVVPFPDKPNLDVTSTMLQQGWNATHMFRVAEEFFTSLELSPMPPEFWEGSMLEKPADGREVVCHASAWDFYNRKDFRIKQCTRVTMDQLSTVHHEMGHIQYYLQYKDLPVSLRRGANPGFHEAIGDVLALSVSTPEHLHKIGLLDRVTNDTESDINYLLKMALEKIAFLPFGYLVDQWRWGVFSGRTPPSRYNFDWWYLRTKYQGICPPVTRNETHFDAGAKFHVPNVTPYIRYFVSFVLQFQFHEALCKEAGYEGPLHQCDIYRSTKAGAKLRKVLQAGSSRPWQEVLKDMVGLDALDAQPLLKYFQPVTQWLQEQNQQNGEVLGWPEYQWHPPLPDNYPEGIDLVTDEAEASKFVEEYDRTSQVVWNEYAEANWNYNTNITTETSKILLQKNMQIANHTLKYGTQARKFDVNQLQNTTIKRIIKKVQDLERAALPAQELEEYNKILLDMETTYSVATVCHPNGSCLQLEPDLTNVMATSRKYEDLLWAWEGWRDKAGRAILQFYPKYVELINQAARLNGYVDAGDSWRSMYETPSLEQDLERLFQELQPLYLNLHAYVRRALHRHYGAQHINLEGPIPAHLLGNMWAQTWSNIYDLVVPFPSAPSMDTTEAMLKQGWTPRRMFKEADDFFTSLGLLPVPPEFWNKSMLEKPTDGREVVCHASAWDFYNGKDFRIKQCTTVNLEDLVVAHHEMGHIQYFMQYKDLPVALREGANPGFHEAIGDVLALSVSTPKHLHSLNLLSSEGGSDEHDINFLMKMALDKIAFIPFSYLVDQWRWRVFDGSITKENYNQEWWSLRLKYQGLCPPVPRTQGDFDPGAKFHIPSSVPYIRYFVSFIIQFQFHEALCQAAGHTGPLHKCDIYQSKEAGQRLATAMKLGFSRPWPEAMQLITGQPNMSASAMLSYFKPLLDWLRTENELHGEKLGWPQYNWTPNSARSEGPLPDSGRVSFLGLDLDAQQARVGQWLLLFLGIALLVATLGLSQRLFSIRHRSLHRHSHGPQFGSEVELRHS

IC50 (ACE [1]; [3]) | Substance | other results
3340 µM | ERFNVE [ERFNVE] | 
931 µM | FDDKLD [FDDKLD] | 
 | Lys - Ser - Val - Leu - Leu - Lys - Phe [peptide from broccoli digest, literature] | ACE inhibition rate (ACE [2]): 42.86%
 | MELVLK [MELVLK] | IC50 (ACE [1]; chemosynthetic peptide, purity greater than 95%, read-out: IC50 (converted)): 2600 µM
1400 µM | TELVLK [TELVLK] | 
